“Also recorded” adds a separate entry of the source.
Assays:
[1] = Body weight change after subcutaneous adjuvant administration; assay type: in vivo, C57/BL6 mice
Protocol: FIG. 10: Persistent local innate immune by particulate Poly-7/8a (PP-7/8a) activation is necessary and sufficient for inducing protective CD8 T cell responses. (a-c) CpG (20 μg), R848 (62.5 nmol) or PP-7/8a^Hi (62.5 nmol) were delivered subcutaneously into both hind footpads of C57/BL6 mice. (a) Supernatant of ex vivo cultured lymph node cell suspensions (n=4) were evaluated for IL-12p40 by ELISA at serial timepoints. (b) Serum (n=3-5) was assessed for IL-12p40 by ELISA at serial timepoints. (c) Percent body weight change (n=3) following subcutaneous administration of different vaccine adjuvants. (d) A model for understanding the relationship between biodistribution and local and systemic innate immune activation. (e, f) C57/BL6 mice (n=6) received a single subcutaneous footpad injection of 50 μg of OVA formulated with adjuvant at days 0 and 14. (e) At day 25, tetramer^+ CD8 T cell responses from whole blood were evaluated by flow cytometry. (f) Mice (n=6) were challenged intravenously at day 28 with LM-OVA and bacterial burden in the spleens was evaluated on day 31. (g, h) Immunogenicity experiments were repeated using SIV Gag p41 in place of OVA.

serum IL-12p40 and IP-10 = assay: Serum (systemic) cytokines after subcutaneous administration (ELISA); assay type: in vivo, C57/BL6 mice
Description: FIG. 9: Morphology of the carrier and TLR-7/8a agonist density, dose and potency independently influence the magnitude and spatiotemporal characteristics of innate immune activation. (a-g) To facilitate in vivo tracking, dye-labeled Poly-7/8a (PP-7/8a^Hi, PP-7/8a^Lo, PC-7/8a^Lo) (Note PP-7/8a^Hi=10 mol % and PP-7/8a^Lo=3 mol %) and small molecule TLR-7/8a normalized for TLR-7/8a dose (12.5 nmol), and controls, were delivered subcutaneously to the left footpad of mice. […] (c-e) Draining lymph nodes (n=3) were harvested at serial timepoints and evaluated by flow cytometry. […] Total CD11c^+ DC were evaluated for (d) adjuvant uptake (% Ax488^+), (e,f) relative adjuvant uptake per cell (Ax488 MFI; note that PP-7/8a^Lo and PC-7/8a^Lo are matched for TLR-7/8a density and dose), (g) magnitude and (h) activation (CD80 co-stimulatory molecule expression). (i) IL-12p40 was measured from the supernatant of ex vivo lymph node cultures. […] At day 28, tetramer+CD8 T cell responses were evaluated from whole blood. […] (n) Total IgG antibody titers and the ratio of IgG1/IgG2c antibody endpoint titers were evaluated from sera on day 28.
FIG. 10: Persistent local innate immune by particulate Poly-7/8a (PP-7/8a) activation is necessary and sufficient for inducing protective CD8 T cell responses. […] (b) Serum (n=3-5) was assessed for IL-12p40 by ELISA at serial timepoints. […]

Th1 CD4 T cells = assay: MML immunization, antigen-specific Th1 cytokine producing CD4 T cells in splenocytes; assay type: in vivo, C57/BL6 mice; conditions: 20 μg MML, days 0, 21 and 42
Protocol: FIG. 11: Particulate Poly-7/8a induce Th1 CD4 T cells that mediate protection against Leishmania major. C57/BL6 mice received subcutaneous immunizations of 20 μg of MML protein either alone, or formulated with an adjuvant, on days 0, 21 and 42. (a) Splenocytes were isolated on day 70 and stimulated in vitro with MML peptide pool. Antigen-specific cytokine producing CD4 T cells in the mixed splenocyte cultures were quantified by flow cytometry (n=5) for their capacity to produce Th1 characteristic cytokines (IFNγ, IL-2 and TNFα). (b) Mice (n=6) were challenged intradermally in both ears with L major at day 70. Ear lesion diameters were measured for 12 weeks.

CD11c+ DC = assay: DC recruitment and activation (CD80) in draining lymph nodes; assay type: in vivo, mice; conditions: TLR-7/8a dose 12.5 nmol, subcutaneous
Description: (§1) FIG. 9: Morphology of the carrier and TLR-7/8a agonist density, dose and potency independently influence the magnitude and spatiotemporal characteristics of innate immune activation. (a-g) To facilitate in vivo tracking, dye-labeled Poly-7/8a (PP-7/8a^Hi, PP-7/8a^Lo, PC-7/8a^Lo) (Note PP-7/8a^Hi=10 mol % and PP-7/8a^Lo=3 mol %) and small molecule TLR-7/8a normalized for TLR-7/8a dose (12.5 nmol), and controls, were delivered subcutaneously to the left footpad of mice. (a, b) mice (n=3) that received IR-dye labeled materials were imaged by dual modality X-ray and epifluorescence spectroscopy; (a) Representative images illustrating biodistribution over the first 2 days; (b) Kinetics of the different constructs in the popliteal lymph node. (c-e) Draining lymph nodes (n=3) were harvested at serial timepoints and evaluated by flow cytometry. […] Total CD11c^+ DC were evaluated for (d) adjuvant uptake (% Ax488^+), (e,f) relative adjuvant uptake per cell (Ax488 MFI; note that PP-7/8a^Lo and PC-7/8a^Lo are matched for TLR-7/8a density and dose), (g) magnitude and (h) activation (CD80 co-stimulatory molecule expression). (i) IL-12p40 was measured from the supernatant of ex vivo lymph node cultures. […] At day 28, tetramer+CD8 T cell responses were evaluated from whole blood. […] (n) Total IgG antibody titers and the ratio of IgG1/IgG2c antibody endpoint titers were evaluated from sera on day 28.

[2] = Biodistribution and kinetics of dye-labeled materials after subcutaneous administration (X-ray and epifluorescence imaging); assay type: in vivo, mice
Description: as §1

hTLR7 = biological target: T1, hTLR7 (Homo sapiens, UniProt Q9NYK1); assay: HEK293 hTLR7 reporter cell assay (absorbance at 405 nm); assay type: cell-based; conditions: HEK293 hTLR7 reporter cells
T1 construct: expressed in transfected cells; host or cells: HEK293
T1 sequence (Q9NYK1 27-1049): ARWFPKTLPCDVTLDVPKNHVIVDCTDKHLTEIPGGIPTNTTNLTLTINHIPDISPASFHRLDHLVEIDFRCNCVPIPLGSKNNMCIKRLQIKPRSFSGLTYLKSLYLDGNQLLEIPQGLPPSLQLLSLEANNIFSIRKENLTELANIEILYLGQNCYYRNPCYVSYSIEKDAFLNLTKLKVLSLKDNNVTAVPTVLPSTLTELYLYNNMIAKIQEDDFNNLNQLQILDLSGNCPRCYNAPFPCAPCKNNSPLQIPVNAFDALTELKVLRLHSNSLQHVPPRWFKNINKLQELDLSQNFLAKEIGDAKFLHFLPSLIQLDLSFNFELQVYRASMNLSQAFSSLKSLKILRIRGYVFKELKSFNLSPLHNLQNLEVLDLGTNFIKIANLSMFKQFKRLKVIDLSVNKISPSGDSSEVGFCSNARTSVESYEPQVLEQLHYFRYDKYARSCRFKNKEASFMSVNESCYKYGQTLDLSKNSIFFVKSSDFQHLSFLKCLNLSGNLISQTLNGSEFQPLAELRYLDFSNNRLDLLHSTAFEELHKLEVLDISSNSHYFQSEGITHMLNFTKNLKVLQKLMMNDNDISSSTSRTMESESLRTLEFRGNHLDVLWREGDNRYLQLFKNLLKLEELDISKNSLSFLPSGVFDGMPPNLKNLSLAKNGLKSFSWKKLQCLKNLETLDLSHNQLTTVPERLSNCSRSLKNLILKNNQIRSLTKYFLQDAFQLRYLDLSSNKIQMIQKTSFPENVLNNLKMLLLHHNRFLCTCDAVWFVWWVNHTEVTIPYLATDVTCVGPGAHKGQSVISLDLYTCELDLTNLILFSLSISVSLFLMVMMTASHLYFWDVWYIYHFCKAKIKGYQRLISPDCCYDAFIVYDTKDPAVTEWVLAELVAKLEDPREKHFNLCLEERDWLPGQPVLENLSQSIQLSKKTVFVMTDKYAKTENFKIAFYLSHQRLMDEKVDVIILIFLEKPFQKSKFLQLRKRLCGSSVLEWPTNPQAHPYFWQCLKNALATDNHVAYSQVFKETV
Protocol: FIG. 6: Combinatorial synthesis was used to generate diverse arrays of Poly-7/8a. […] The potency of these two TLR-7/8a was evaluated in vitro using HEK293 hTLR7 reporter cells; absorbance at 405 nm is proportional to TLR7 binding. (b) A combinatorial library of Poly-7/8a was generated by attaching 2 unique TLR-7/8a (SM 7/8a or SM 20×7/8a) to reactive HPMA-based copolymers at different densities (˜2,4, 8 mol %) using either a short, alkane or PEG linker. By reacting 2 unique TLR-7/8a, at 3 different densities, using 3 different linkers, there are 18 unique products that can be generated, as illustrated (c). Note that this cartoon representation is for illustrative purposes; not all Poly-7/8a represented in this schematic were evaluated in this study, nor does this schematic represent all the materials described herein.

[3] = Particle formation and size in aqueous solution by (dynamic) light scattering; assay type: physicochemical; conditions: 0.1 mg/mL PBS
Description: FIG. 7: In vivo screening of a combinatorial library of Poly-7/8a yields structure-activity insights. (a) Lymph node (n=4) IL-12p40 induced by a combinatorial library of Poly-7/8a. (b) Influence of TLR-7/8a density on lymph node (n=6) IL-12p40 and IP-10 levels (left y-axis, line graphs) and particle size assessed by dynamic light scattering (right y-axis, bar graph). (c) Cryo-electron microscopy of selected samples is shown for illustrative purposes. […] SM=small molecule; PC=polymer coil; PP=polymer particle.
FIG. 8: Increasing density of agonists on polymers results in an increased tendency of Poly-7/8a to form particles in aqueous solutions and is associated with enhanced local innate immune activity. (b) Negative control polymers were generated using aminopyridine (AP) to account for the contribution of the aromatic amine present on the imidazoquinoline based TLR-7/8a used in this study. AP was attached to polymers either through a PEG or amphiphilic (AMPH) spacer. […] 24 h after administration, supernatant of overnight lymph node cell suspensions were assessed for IFNα (d) or IFNγ (e) by ELISA. (f-g) Lymph nodes were isolated from wild type (WT), TLR-7 knockout or Caspase 1/11 (inflammasome) knockout mice 24 h after subcutaneously administering Poly-7/8a^10%; culture supernatants were evaluated for IP-10 and IL-12 by ELISA.

CCOCc1nc2c(N)nc3ccccc3c2n1CC(C)(C)O [R848]
mouse body weight [1]: transient decreases in mouse body weight
systemic (sera) cytokines (serum IL-12p40 and IP-10; CpG 20 μg, R848 62.5 nmol, PP-7/8a^Hi 62.5 nmol, subcutaneous): only induced systemic (sera) cytokines; also recorded: high levels of transient systemic cytokine production

CCOCc1nc2c(N)nc3ccccc3c2n1CCCCN [SM 7/8a, 1-(4-aminobutyl)-2-(ethoxymethyl)-1H-imidazo[4,5-c]quinolin-4-amine]
Th1-type CD4 cell responses (Th1 CD4 T cells): equivalent to MML administered alone
DC recruitment, activation and cytokine production in draining lymph nodes (CD11c+ DC): limited lymph node responses
time after which undetectable [2]: ≤ 1 days
biodistribution / retention ([2]; normalized for TLR-7/8a dose): distributed systemically
serum cytokines (serum IL-12p40 and IP-10; TLR-7/8a dose 12.5 nmol, local (subcutaneous) administration): high levels of serum cytokines

CCCCc1nc2c(N)nc3ccccc3c2n1Cc1ccc(CN)cc1 [SM 20×7/8a, 1-(4-(aminomethyl)benzyl)-2-butyl-1H-imidazo[4,5-c]quinolin-4-amine]
potency relative to SM 7/8a (hTLR7): ~20 fold

p[(HPMA)-co-(Ma-β-Ala-PEG-Pam2Cys)] [Poly-PEG-Pam2Cys]
z-average diameter [3]: 2,744±384.8 nm

— patent US20250090658A1, “POLYMER ADJUVANT” (Oxford University Innovation Limited, priority 2014, published 2025)
